From patent publication US20230124720A1, “APPLICATION OF ACRIDINEDIONE COMPOUND IN PREPARATION OF ANTI-DIABETIC DRUGS” (THE FOURTH MILITARY MEDICAL UNIVERSITY, priority 2020, published 2023)

Experiments:
[1] = target: T1, HEK-293T cells stably overexpressing GPR40 (Homo sapiens, UniProt O14842); test: GPR40 agonistic activity assay (Fluo-4 AM fluorescence, Flexstation); type: cell-based
T1 construct: expressed in transfected cells; host or cells: HEK-293T
Experimental: There were triplicate wells for each group, and a Flexstation instrument was used for detecting and reading fluorescence values. Each compound dilution concentration was: 200 μmol/L, 100 μmol/L, 50 μmol/L, 10 μmol/L, 5 μmol/L.
EC50 value for each compound was calculated from the measured fluorescence value according to the following formula:
Relative agonism ratio=(fluorescence value of test compound-fluorescence value of negative control)/(fluorescence value of agonist positive control-fluorescence value of negative control)*100%;

MIN6 cells [2] = test: Glucose-stimulated insulin secretion in MIN6 cells (GSIS); type: cell-based, mouse
Experimental: MIN6 cells were seeded in a 24-well plate at an appropriate concentration, and after continued culture until cell confluence exceeded 80%, administration was carried out in the following groups: normal control group (Con), ADD group (ADD-16 was administered at a concentration of 100 μmol/L, 30 μmol/L, 10 μmol/L, 3 μmol/L, 1 μmol/L, 0.3 μmol/L, respectively), TAK875 group (administered at a concentration of 10 μmol/L, 3 μmol/L, 1 μmol/L, respectively), with 6 replicates per group. Incubation was continued for 24 h after group dosing, media was aspirated and gently rinsed 2 times with a sugar-free KRB buffer. After rinsing, the sugar-free KRB buffer was added and incubated at 37° C. for 10 min. At the end of the incubation, the buffer was aspirated and each well was exhausted as much as possible. Each group was dosed with 16.7 mmol/L glucose in a KRB buffer and incubated at 37° C. for 1 hour. All media in the wells was aspirated after 1 h, centrifuged at 2000 rmp/min for 20 min, and the supernatant was collected and stored at −20° C. The insulin content was measured for each group following the instructions of the mouse insulinase ELISA assay kit.
Insulinase ELISA assay: the supernatant of each set of media was taken and processed according to the procedure of Table 1:
The final mixture was mixed well with shaking and the OD was read on a microplate reader at 450 nm. The insulin content of each group was calculated.

STZ-induced T2DM rats [3] = test: Serum lipid metabolism indicators in T2DM rats; type: in vivo, rat
Experimental: (§1) 150 male SD rats, housed in cages in a clean constant temperature (23±2° C.) and humidity (55±10%) animal house, were manually adjusted on a daily 12 h/12 h diurnal light cycle with free access to water. After 3 days of adaptive feeding, 150 rats were randomly divided into normal and model groups. The normal (Con, n=15) group of rats remained on raw chow and the model group (n=135) of rats were given high fat high sugar chow. All rats were fed twice daily and the amount of feed was adjusted as needed to ensure adequate feed. After 8 weeks of group feeding, the model group rats were given an intraperitoneal injection of 25 mg/kg STZ solution with a 12 h fast prior to injection. After injection, feeding was continued as in the original method, blood was taken from the tail vein at 72 h for blood glucose measurement, and rats with fasting blood glucose levels ≥11.1 mmol/L on different days were screened for successful artificial induction of T2DM and administered in groups for the next experiment. 135 rats with successful modeling were randomly divided into 9 groups: […] […] Relevant indicators of lipid metabolism were measured after the end of the study.

STZ-induced T2DM rats [4] = test: Oral glucose tolerance test (OGTT) in T2DM rats; type: in vivo, rat; conditions: artificially induced T2DM rats
Experimental: as §1, with “study. At the final week of the Oral Glucose Tolerance Test (OGTT) test, each group of rats was fasted from water 16 h after gavage administration and the fasting blood glucose value (as 0 min) was measured for each rat. […]” for “study.”

MIN6 cells [5] = test: Cytotoxicity / growth of MIN6 cells (FIG. 1A); type: cell-based, mouse; conditions: 100 μmol/L
STZ-induced T2DM rats [6] = test: Postprandial blood glucose in STZ-induced T2DM rats; type: in vivo, rat; conditions: for reduction in blood glucose compared to the TD group: end of administration
Experimental: 150 male SD rats, housed in cages in a clean constant temperature (23±2° C.) and humidity (55±10%) animal house, were manually adjusted on a daily 12 h/12 h diurnal light cycle with free access to water. After 3 days of adaptive feeding, 150 rats were randomly divided into normal and model groups. The normal (Con, n=15) group of rats remained on raw chow and the model group (n=135) of rats were given high fat high sugar chow. All rats were fed twice daily and the amount of feed was adjusted as needed to ensure adequate feed. After 8 weeks of group feeding, the model group rats were given an intraperitoneal injection of 25 mg/kg STZ solution with a 12 h fast prior to injection. After injection, feeding was continued as in the original method, blood was taken from the tail vein at 72 h for blood glucose measurement, and rats with fasting blood glucose levels ≥11.1 mmol/L on different days were screened for successful artificial induction of T2DM and administered in groups for the next experiment. 135 rats with successful modeling were randomly divided into 9 groups: […] (2) 0.01 mg/kg ADD-16 administration group (ADD I, n=15): daily administration of 0.01 mg/kg ADD-16 solution by gavage; (3) 0.1 mg/kg ADD-16 administration group (ADD II, n=15): daily administration of a 0.1 mg/kg ADD-16 solution by gavage; (4) 1 mg/kg ADD-16 administration group (ADD III, n=15): daily administration of a 1 mg/kg ADD-16 solution by gavage; (5) 3 mg/kg ADD-16 administration group (ADD IV, n=15): daily administration of a 3 mg/kg ADD-16 solution by gavage; (6) 10 mg/kg ADD-16 administration group (ADD V, n=15): daily administration of a 10 mg/kg ADD-16 solution by gavage; (7) 50 mg/kg ADD-16 administration group (ADD VI, n=15): daily administration of a 50 mg/kg ADD-16 solution by gavage; […] (9) Sitagliptin control group (ST, n=15): daily administration of a 6 mg/kg sitagliptin solution by gavage. […] Relevant indicators of lipid metabolism were measured after the end of the study.

T1 sequence (O14842 whole entry): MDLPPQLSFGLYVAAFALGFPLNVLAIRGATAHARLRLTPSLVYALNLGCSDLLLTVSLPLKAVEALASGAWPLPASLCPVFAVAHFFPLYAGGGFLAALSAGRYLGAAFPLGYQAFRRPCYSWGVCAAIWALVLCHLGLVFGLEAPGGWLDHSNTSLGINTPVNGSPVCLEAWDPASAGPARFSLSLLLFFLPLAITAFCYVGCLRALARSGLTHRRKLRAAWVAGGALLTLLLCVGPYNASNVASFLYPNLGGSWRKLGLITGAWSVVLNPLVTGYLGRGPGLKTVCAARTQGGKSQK

CC1(C)CC(=O)C2=C(C1)NC1=C(C(=O)CC(C)(C)C1)C2c1ccc(OCc2ccc(C(=O)O)cc2)c(Br)c1 [ADD-16]
EC50 ([1]; GPR40 agonism, n = 6): 12.3 µM
agonistic activity (in words) ([1]; among the candidate compounds screened): highest agonistic activity
insulin secretion compared to the Con group (in words) (MIN6 cells [2]; 100 μmol/L, 24 h): decreased insulin secretion
glucose-stimulated insulin secretion (in words) (MIN6 cells [2]; 24 h, 16.7 mmol/L glucose, concentration dependent): promote glucose-stimulated insulin secretion
insulinotropic effect compared with TAK875 (in words) (MIN6 cells [2]; same concentrations): significantly better than TAK875
TG, LDL and HDL levels, 10 mg/kg against 3 mg/kg (in words) (STZ-induced T2DM rats [3]; ADD V (10 mg/kg) group): significantly lower than ADD IV (3 mg/kg) group rats
serum FFA, TC, TG, LDL and HDL levels (in words) (STZ-induced T2DM rats [3]; four weeks after administration, ADD-16: ADD III-ADD VI groups (1-50 mg/kg), P<0.05): significantly decreased
glucose tolerance (OGTT, in words) (STZ-induced T2DM rats [4]): increase glucose tolerance
effect on MIN6 cell growth (in words) (MIN6 cells [5]): inhibitory effect on MIN6 cell growth
reduction in blood glucose compared to the TD group (STZ-induced T2DM rats [6]; ADD IV group, 3 mg/kg daily by gavage): 55.0%
reduction in blood glucose compared to the TD group (STZ-induced T2DM rats [6]; ADD V group, 10 mg/kg daily by gavage): 56.8%
reduction in blood glucose compared to the TD group (STZ-induced T2DM rats [6]; ADD VI group, 50 mg/kg daily by gavage): 56.2%
hypoglycemic effect (in words) (STZ-induced T2DM rats [6]; T2DM rats, 3, 10, 50 mg/kg): significant hypoglycemic effect
